Source: PubChem BioAssay AID1963428 (Molecular Pharmacology Branch, DTP, NCI, 2024)
Several values for one entry are separate records, joined by “and”; a condition that tells them apart may be missing. Equal values may be shown once.

Test system: 171881-019-R-J1-PDC complex spheroid growth, % test/control
Assay: Anticancer human tumor 171881-019-R-J1-PDC patient-derived invasive breast carcinoma cell line growth inhibition [Asc]
Settings: for viability, T/C: stronger effect = lower value; active = viability on the fitted dose curve at most 10% of control; inactive = the rest
Method in brief: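 Tumor cells were grown as complex spheroids with human endothelial cells (HUVEC) and human mesenchymal stem cells as stroma. Agents were tested alone and in combination, in half-log steps down from the clinical Cmax, or from 10 microM where Cmax was unknown.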

[1] = curve of first compound, second compound 0.01 µM
[2] = curve of first compound, second compound 0.0316 µM
[3] = curve of first compound, second compound 0.1 µM
[4] = curve of first compound, second compound 0.316 µM
[5] = curve of first compound, second compound 1 µM
[6] = second compound 0.01 µM, first compound 0.00316 µM
[7] = second compound 0.01 µM, first compound 0.01 µM
[8] = second compound 0.01 µM, first compound 0.0316 µM
[9] = second compound 0.01 µM, first compound 0.1 µM
[10] = second compound 0.0316 µM, first compound 0.00316 µM
[11] = second compound 0.0316 µM, first compound 0.01 µM
[12] = second compound 0.0316 µM, first compound 0.0316 µM
[13] = second compound 0.0316 µM, first compound 0.1 µM
[14] = second compound 0.1 µM, first compound 0.00316 µM
[15] = second compound 0.1 µM, first compound 0.01 µM
[16] = second compound 0.1 µM, first compound 0.0316 µM
[17] = second compound 0.1 µM, first compound 0.1 µM
[18] = second compound 0.316 µM, first compound 0.00316 µM
[19] = second compound 0.316 µM, first compound 0.01 µM
[20] = second compound 0.316 µM, first compound 0.0316 µM
[21] = second compound 0.316 µM, first compound 0.1 µM
[22] = second compound 1 µM, first compound 0.00316 µM
[23] = second compound 1 µM, first compound 0.01 µM
[24] = second compound 1 µM, first compound 0.0316 µM
[25] = second compound 1 µM, first compound 0.1 µM
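For viability, T/C in this document: spheroids exposed to compounds for 7 days.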

NC1CCC(NC2CC2c2ccccc2)CC1 (configuration not stated) + CNC(C)C(=O)NC1CN(S(=O)(=O)c2cccc(S(=O)(=O)N3CCC4CCC(C(=O)NC(c5ccccc5)c5ccccc5)N4C(=O)C(NC(=O)C(C)NC)C3)c2)CCC2CCC(C(=O)NC(c3ccccc3)c3ccccc3)N2C1=O
inactive: viability, T/C (second compound 0.01 µM, first compound 0.000316 µM) 94.2% | viability, T/C (second compound 0.01 µM, first compound 0.001 µM) 86.1% | viability, T/C [6] 82.1% | viability, T/C [7] 87.2% | viability, T/C [8] 83.9% | viability, T/C [9] 81% | viability, T/C (second compound 0.0316 µM, first compound 0.000316 µM) 89.9% | viability, T/C (second compound 0.0316 µM, first compound 0.001 µM) 91.5% | viability, T/C [10] 100% | viability, T/C [11] 84.9% | viability, T/C [12] 79.5% | viability, T/C [13] 79.9% | viability, T/C (second compound 0.1 µM, first compound 0.000316 µM) 103% | viability, T/C (second compound 0.1 µM, first compound 0.001 µM) 103% | viability, T/C [14] 85.4% | viability, T/C [15] 79.1% | viability, T/C [16] 91.8% | viability, T/C [17] 91.8% | viability, T/C (second compound 0.316 µM, first compound 0.000316 µM) 90.4% | viability, T/C (second compound 0.316 µM, first compound 0.001 µM) 86.9% | viability, T/C [18] 84.2% | viability, T/C [19] 95.9% | viability, T/C [20] 85.3% | viability, T/C [21] 81.2% | viability, T/C (second compound 1 µM, first compound 0.000316 µM) 91.5% | viability, T/C (second compound 1 µM, first compound 0.001 µM) 96.6% | viability, T/C [22] 87.9% | viability, T/C [23] 85.2% | viability, T/C [24] 92.8% | viability, T/C [25] 86%
> 100 nM: IC50 [1] | IC50 [2] | IC50 [3] | IC50 [4] | IC50 [5]

O=C(c1ccc(F)c(F)c1Nc1ccc(I)cc1F)N1CC(O)([C@@H]2CCCCN2)C1 + CNC(C)C(=O)NC1CN(S(=O)(=O)c2cccc(S(=O)(=O)N3CCC4CCC(C(=O)NC(c5ccccc5)c5ccccc5)N4C(=O)C(NC(=O)C(C)NC)C3)c2)CCC2CCC(C(=O)NC(c3ccccc3)c3ccccc3)N2C1=O
519 nM: IC50 [4]
408 nM: IC50 [5]
747 nM: IC50 [2]
inactive: viability, T/C [6] 98.1% | viability, T/C [7] 103% | viability, T/C [8] 125% | viability, T/C [9] 202% | viability, T/C (second compound 0.01 µM, first compound 0.316 µM) 96.9% | viability, T/C (second compound 0.01 µM, first compound 1 µM) 44.9% | viability, T/C [10] 93.8% | viability, T/C [11] 98.2% | viability, T/C [12] 133% | viability, T/C [13] 203% | viability, T/C (second compound 0.0316 µM, first compound 0.316 µM) 86.4% | viability, T/C (second compound 0.0316 µM, first compound 1 µM) 37.6% | viability, T/C [14] 84.7% | viability, T/C [15] 91.3% | viability, T/C [16] 148% | viability, T/C [17] 191% | viability, T/C (second compound 0.1 µM, first compound 0.316 µM) 80% | viability, T/C (second compound 0.1 µM, first compound 1 µM) 30.5% | viability, T/C [18] 115% | viability, T/C [19] 111% | viability, T/C [20] 145% | viability, T/C [21] 179% | viability, T/C (second compound 0.316 µM, first compound 0.316 µM) 68.2% | viability, T/C (second compound 0.316 µM, first compound 1 µM) 25.7% | viability, T/C [22] 92.5% | viability, T/C [23] 110% | viability, T/C [24] 121% | viability, T/C [25] 158% | viability, T/C (second compound 1 µM, first compound 0.316 µM) 58.1% | viability, T/C (second compound 1 µM, first compound 1 µM) 21.4%
635 nM: IC50 [3]
> 1000 nM: IC50 [1]

Cn1ncnc1[C@H]1c2n[nH]c(=O)c3cc(F)cc(c23)N[C@@H]1c1ccc(F)cc1 + CCN1C(C(=O)NC23CCC(C(=O)O)(CC2)CC3)C(c2cccc(Cl)c2F)C2(C(=O)Nc3cc(Cl)ccc32)C12CCCCC2
inactive: viability, T/C (second compound 0.03 µM, first compound 0.000316 µM) 93.2% | viability, T/C (second compound 0.03 µM, first compound 0.001 µM) 110% | viability, T/C (second compound 0.03 µM, first compound 0.00316 µM) 107% | viability, T/C (second compound 0.03 µM, first compound 0.01 µM) 103% | viability, T/C (second compound 0.03 µM, first compound 0.0316 µM) 105% | viability, T/C (second compound 0.03 µM, first compound 0.1 µM) 96.8% | viability, T/C (second compound 0.0949 µM, first compound 0.000316 µM) 102% | viability, T/C (second compound 0.0949 µM, first compound 0.001 µM) 95.5% | viability, T/C (second compound 0.0949 µM, first compound 0.00316 µM) 95.8% | viability, T/C (second compound 0.0949 µM, first compound 0.01 µM) 111% | viability, T/C (second compound 0.0949 µM, first compound 0.0316 µM) 104% | viability, T/C (second compound 0.0949 µM, first compound 0.1 µM) 114% | viability, T/C (second compound 0.3 µM, first compound 0.000316 µM) 99.5% | viability, T/C (second compound 0.3 µM, first compound 0.001 µM) 126% | viability, T/C (second compound 0.3 µM, first compound 0.00316 µM) 101% | viability, T/C (second compound 0.3 µM, first compound 0.01 µM) 104% | viability, T/C (second compound 0.3 µM, first compound 0.0316 µM) 109% | viability, T/C (second compound 0.3 µM, first compound 0.1 µM) 109% | viability, T/C (second compound 0.949 µM, first compound 0.000316 µM) 115% | viability, T/C (second compound 0.949 µM, first compound 0.001 µM) 115% | viability, T/C (second compound 0.949 µM, first compound 0.00316 µM) 120% | viability, T/C (second compound 0.949 µM, first compound 0.01 µM) 108% | viability, T/C (second compound 0.949 µM, first compound 0.0316 µM) 115% | viability, T/C (second compound 0.949 µM, first compound 0.1 µM) 120% | viability, T/C (second compound 3 µM, first compound 0.000316 µM) 119% | viability, T/C (second compound 3 µM, first compound 0.001 µM) 111% | viability, T/C (second compound 3 µM, first compound 0.00316 µM) 115% | viability, T/C (second compound 3 µM, first compound 0.01 µM) 110% | viability, T/C (second compound 3 µM, first compound 0.0316 µM) 110% | viability, T/C (second compound 3 µM, first compound 0.1 µM) 114%
> 100 nM: IC50 (curve of first compound, second compound 0.03 µM) | IC50 (curve of first compound, second compound 0.0949 µM) | IC50 (curve of first compound, second compound 0.3 µM) | IC50 (curve of first compound, second compound 0.949 µM) | IC50 (curve of first compound, second compound 3 µM)

NC(=O)C(=Cn1cnc(-c2cc(C(F)(F)F)cc(C(F)(F)F)c2)n1)c1cncnc1
inactive: viability, T/C (compound 0.000949 µM) 83.2% and 95.6% and 98.7% | viability, T/C (compound 0.003 µM) 90.3% and 107% and 115% | viability, T/C (compound 0.00949 µM) 73.5% and 95.6% and 128% | viability, T/C (compound 0.03 µM) 44.2% and 56.6% and 124%
23.4 nM and 35.4 nM and 66.1 nM: IC50 (curve of compound)
7.59% and 10.6% and 19.6%: viability, T/C (compound 0.0949 µM)
active: viability, T/C (compound 0.3 µM) 2.48% and 3.46% and 4.69%
